Data taken from article PMC9833666, “Designing and identifying β-hairpin peptide macrocycles with antibiotic potential” (Science Advances, 2023).
Bridge positions count the residues as written; N and C are the ends. Peptide text beside a SMILES is read from it.

test system: Escherichia coli W3110; assay type: cell-based; conditions: W3110

W3110 MIC, >256 µg/mL:
CC[C@H](C)[C@@H]1NC(=O)[C@H](CCCNC(=N)N)NC(=O)[C@H](C(C)C)NC(=O)[C@H](CCCNC(=N)N)NC(=O)[C@@H](N)CSSC[C@@H](C(=O)O)NC(=O)[C@H](CCC(=O)O)NC(=O)[C@H](C(C)C)NC(=O)[C@H](CCC(N)=O)NC(=O)[C@H](CC(C)C)NC(=O)[C@H](CCCCN)NC(=O)[C@H](CC(C)C)NC(=O)[C@H](CCCNC(=N)N)NC(=O)CNC(=O)[C@H](CCCNC(=N)N)NC(=O)[C@H](CCCNC(=N)N)NC(=O)[C@H](CC(=O)O)NC(=O)[C@H](CC(=O)O)NC(=O)[C@H](C(C)C)NC(=O)[C@H](CC(N)=O)NC1=O [SyRC-1] (H-CRVRINVDDRRGRLKLQVEC-OH; disulfide 1-20)
CC[C@H](C)[C@@H]1NC(=O)[C@H](CC(N)=O)NC(=O)[C@H]([C@@H](C)CC)NC(=O)[C@H](CCCCN)NC(=O)[C@H](C(C)C)NC(=O)[C@H](CCCNC(=N)N)NC(=O)[C@@H](N)CSSC[C@@H](C(=O)O)NC(=O)[C@H](CCC(=O)O)NC(=O)[C@H](C(C)C)NC(=O)[C@H](CCC(=O)O)NC(=O)[C@H](CC(C)C)NC(=O)[C@H](CCCNC(=N)N)NC(=O)[C@H](C(C)C)NC(=O)[C@H](CCCNC(=N)N)NC(=O)[C@H](CCCNC(=N)N)NC(=O)[C@H](CO)NC(=O)CNC(=O)[C@H](CC(N)=O)NC(=O)[C@H](CC(=O)O)NC1=O [SyRC-2] (H-CRVKINIDNGSRRVRLEVEC-OH; disulfide 1-20)
CC[C@H](C)[C@@H]1NC(=O)[C@H](CCCNC(=N)N)NC(=O)[C@H]([C@@H](C)CC)NC(=O)[C@H](CCCNC(=N)N)NC(=O)[C@@H](N)CSSC[C@@H](C(=O)O)NC(=O)[C@H](CCC(=O)O)NC(=O)[C@H](C(C)C)NC(=O)[C@H](CCC(=O)O)NC(=O)[C@H](CC(C)C)NC(=O)[C@H](CCCNC(=N)N)NC(=O)[C@H](C(C)C)NC(=O)[C@H]([C@@H](C)O)NC(=O)CNC(=O)CNC(=O)[C@H](CCCNC(=N)N)NC(=O)[C@H](CC(=O)O)NC(=O)[C@H](CC(N)=O)NC(=O)[C@H](C(C)C)NC(=O)[C@H](CC(N)=O)NC1=O [SyRC-4] (H-CRIRINVNDRGGTVRLEVEC-OH; disulfide 1-20)
CC[C@H](C)[C@@H]1NC(=O)[C@H](CC(=O)O)NC(=O)[C@H]([C@@H](C)CC)NC(=O)[C@H](CCCNC(=N)N)NC(=O)[C@H](C(C)C)NC(=O)[C@H](CCCNC(=N)N)NC(=O)[C@@H](N)CSSC[C@@H](C(=O)O)NC(=O)[C@H](CCC(N)=O)NC(=O)[C@H](CC(C)C)NC(=O)[C@H](CCC(N)=O)NC(=O)[C@H](CC(C)C)NC(=O)[C@H](CCCCN)NC(=O)[C@H](CC(C)C)NC(=O)[C@H](CCCNC(=N)N)NC(=O)[C@H](CCCNC(=N)N)NC(=O)[C@H](CCCNC(=N)N)NC(=O)CNC(=O)[C@H](CC(N)=O)NC(=O)[C@H](CC(N)=O)NC1=O [SyRC-5] (H-CRVRIDINNGRRRLKLQLQC-OH; disulfide 1-20)
CC[C@H](C)[C@@H]1NC(=O)[C@H](CC(N)=O)NC(=O)[C@H](C(C)C)NC(=O)[C@H](CCCCN)NC(=O)[C@H]([C@@H](C)CC)NC(=O)[C@H](CCCNC(=N)N)NC(=O)[C@@H](N)CSSC[C@@H](C(=O)O)NC(=O)[C@H](CCC(=O)O)NC(=O)[C@H](CC(C)C)NC(=O)[C@H](CCC(=O)O)NC(=O)[C@H](CC(C)C)NC(=O)[C@H](CCCCN)NC(=O)[C@H](C(C)C)NC(=O)[C@H]([C@@H](C)O)NC(=O)[C@H](CCCNC(=N)N)NC(=O)[C@H](CCCNC(=N)N)NC(=O)[C@H](CCCNC(=N)N)NC(=O)[C@H](CC(N)=O)NC(=O)[C@H](CC(N)=O)NC1=O [SyRC-6] (H-CRIKVNINNRRRTVKLELEC-OH; disulfide 1-20)
